Reference: patent publication US20130053323A1, “METHODS AND USE RELATED TO HUMANIN AND HUMANIN-LIKE PEPTIDES” (priority 2009, published 2013)

Tests used:
[1] = test system: growth plate chondrocytes; experiment: TUNEL chondrocyte apoptosis in growth plate sections of C57B and NMRI mice; assay type: in vivo; details: bortezomib 1 mg/kg i.p.; day 13 (48 hrs post treatment); each strain, p<0.001 vs vehicle
Description: (§1) Normal 5-week old male C57B and NMRI (B&K Universal, Sollentuna, Sweden) mice were housed one per cage in our animal care facility under a 12-h light, 12-h dark schedule with water ad libitum. After an adaptation period, each strain of mice were divided into two groups according to their body weight and were weight-matched into pairs to either receive 1 cycle intra peritoneal (i.p) injections of CT (bortezomib; Millennium Pharmaceuticals, USA, 1 mg/kg of body weight; 2 injections/week, 2 weeks treatment) or saline (vehicle). Body weight, food and general physical status was recorded daily during the first 20 days, and each vehicle-treated mouse was pair-fed to corresponding weight-matched CT (bortezomib)-treated mice. […] X-ray analyses where performed approximately every second week from start of treatment (represents time-point zero) to time of killing (day 56).
Cell death is a well known and desirable phenomenon in the anti-cancer therapy. However, side-effects of the treatment in other tissues and cells is not uncommon. To further investigate the underlying mechanism(s) to the observed growth impairment in vivo we studied apoptosis (by the TUNEL method). Apoptosis was quantified in paraffin embedded growth plate sections of CT (bortezomib) and vehicle treated C57B and NMRI mice sacrificed on day 13 of the study (48 hrs post treatment).

[2] = test system: chondrocytes of fetal rat metatarsal bones; experiment: TUNEL apoptosis in growth plate sections of cultured rat metatarsal bones; assay type: cell-based; details: bortezomib 1-1000 nM, 12-day culture, p<0.001 vs control
Description: (§2) The three middle metatarsal bone rudiments were dissected out from the paws of 20-day-old embryos (E20) (De Luca, Barnes et al. 2001). After dissection, bones were transferred to 24-well plates, one bone per well and cultured in 0.5 ml phenol-red MEM medium supplemented with 0.2% endotoxin-free fraction BSA, […] β-glycerophosphate, 0.05 mg/ml ascorbic acid and 100 μg/ml penicillin/streptomycin at 37° C. under 5% CO2 in humidified atmosphere. Medium was changed every 2-3 days. Images were captured at days 0, 2, 5, 7, 9 and 12 of culture, using a Hamamatsu C4742-95 digital camera mounted on a Nikon SMZ-U microscope. The Image-Pro plus™ (Media Cybernetics, USA) software was used to measure longitudinal growth. Metatarsal bone growth is expressed as a percentage of the length at the day of dissection (regarded as day 0). Treatment with CT (bortezomib), dexamethasone and/or HNG (S14G) was started 2-4 hours after dissection. All isolated bones were pooled and then randomly divided into the different treatment groups (4 to 6 bones per group). Each experiment was repeated at least 3 times.
CT (bortezomib) is a cytotoxic drug known to cause critical alterations in cells/tissues and disturb the cellular homeostasis. […] Apoptosis was analyzed in whole growth plate sections of 12-day cultured rat metatarsal bones (perichondrium excluded) by applying the TUNEL technique to detect DNA fragmentation.

[3] = test system: fetal rat metatarsal bones; experiment: Longitudinal growth of cultured fetal rat metatarsal bones; assay type: cell-based
Description: as §2
The data shown in FIG. 2A indicates novel growth promoting/protective effects of humanin analog HNG (S14G) on longitudinal bone growth in cultured fetal rat metatarsal bones. […] Briefly, fetal rat metatarsal bones were pre-treated with different concentrations (mentioned in the figure) of HNG (S14G), 30 min prior to addition of Dexa. […] (n=4-6 bones/group)
CT (bortezomib) is a cytotoxic drug known to cause critical alterations in cells/tissues and disturb the cellular homeostasis. To test the effect of CT (bortezomib) on chondocytes and longitudinal bone growth, the established in vitro model of fetal rat metatarsal bones was used. These bones were collected as described in material and methods, cultured and treated with different concentrations of CT (bortezomib) under sterile conditions for up to 12 days. […] Apoptosis was analyzed in whole growth plate sections of 12-day cultured rat metatarsal bones (perichondrium excluded) by applying the TUNEL technique to detect DNA fragmentation.
In an attempt to block and prevent the negative effects on growth after CT (bortezomib)-treatment, recently discovered humanin analog HNG (S14G) was tested in vitro in fetal rat metatarsal bones.

C57B and NMRI mice = experiment: Bone length (X-ray) and body weight in normal C57B and NMRI mice; assay type: in vivo; details: for bone length (femur, X-ray): bortezomib 1 mg/kg i.p., 1 cycle
Description: as §1
FIG. 5 illustrates a schematic representation of the experimental design for the in vivo studies in C57B and NMRI mice. Both strains of mice were housed one per cage with water ad libitum. At start of treatment, mice were randomized into two groups based on their body weight and were weight-matched into pairs to either receive 1 cycle of intraperitoneal (i.p.) injected CT (bortezomib, 1 mg/kg) or vehicle at the indicated time-points; day 1, 4, 8 and 11. Each vehicle treated mouse was pair-fed to a corresponding weight-matched CT (bortezomib) treated mouse. Mice were killed (t) on day 13 (48 hrs post treatment) or on day 56 (45 days post treatment). X-ray analyses where performed approximately every second week from start of treatment (represents time-point zero) to time of killing (day 13 or 56). Bone lengths (mm) of femur were analyzed in vehicle- and CT (bortezomib) treated animals. Each group included 7-10 mice.
Body weight was measured in both strains of mice every day until day 20 after start of treatment, and once per week thereafter. […] The vertical hatched line in FIGS. 6A and B indicates the last injection on day 11. In light of the growth inhibiting effect on metatarsal bones in vitro and the association of many other cytotoxic drugs, the effect on bone growth was investigated in vivo. Normal 5-week old male C57B and NMRI mice were weigh-matched into pairs to either receive 1 cycle intra peritoneal (i.p) injections of CT (bortezomib) at a clinical relevant dose (1mg/kg of body weight; 2 injections/week, 2 weeks treatment) or saline (vehicle). One group were killed 48 hrs after last injection (day 13) to study the direct effects on bone growth and the growth plate chondrocytes. The second group of animals were followed another 45 days without any treatment and then killed (day 56, 45 days post treatment) to look at the long-term effect and if there was any catch-up growth. […]

[4] = test system: neuroblastoma (SK-N-BE(2)) tumor xenografts; experiment: Doubling time of tumors in neuroblastoma xenografts; assay type: in vivo, human; details: bortezomib 0.8 mg/kg i.v. days 1, 4, 8, 11; p<0.05 vs vehicle
[5] = test system: human growth plate cartilage; assay type: cell-based; details: both, 24 h, 1000 nM
Description: Biopsies from the proximal tibia and distal femur growth plates were collected in 5 pubertal children (3 boys and 2 girls) undergoing epiphyseal surgery for different medical conditions (4 patients with constitutional tall stature and 1 patient with leg length discrepancy). Biopsies were cut into thin slices under microscope and cultured for 24 hrs in the presence of 1000 nM CT (bortezomib). After fixation and sectioning, growth plates were analyzed using the TUNEL assay to determine the levels of chondrocyte apoptosis. […] CT (bortezomib) caused a significant increase in apoptosis (22.2±4.4% TUNEL positive cells vs. 6.3±1.8% in control; **p≦0.01, n=5 patients), which was mainly observed in stem-like and early proliferative chondrocytes. Our confirmation that human growth plate cartilage is also highly sensitive to bortezomib-induced cytotoxicity is of considerable clinical importance.

[6] = test system: apoptosis inducing factor (AIF) and BAX; experiment: Western immunoblotting of pro-apoptotic proteins in C5.18 chondrocytic cell line; assay type: cell-based, rat; details: 1000 nM bortezomib, 6hrs
Description: Western immunoblotting to study protein expression was performed in the rat C5.18 chondrocytic cell line after treatment with 1000 nM CT (bortezomib) or 100 nM humanin analog HNG (S14G)/1000 nM CT (bortezomib (Btz)) for 6hrs. […] By adding humanin analog HNG (S14G), the up-regulation and activation of the two pro-apoptotic proteins were suppressed. […] As an internal control the house-keeping gene, GAPDH (35 kDa) was used. The experiment was repeated twice.

growth plate = test system: growth plate
Description: The proteasome inhibitors (PIs), including bortezomib (Velcade™, PS-341), belong to another novel and promising group of CT that has past phase I clinical trials (Blaney, Bernstein et al. 2004) and are now under phase II clinical trials in pediatric cancers. However, secondary effects on normal bystander tissues of primary life saving modalities are so far unknown.

FVB mice = experiment: Dexa-induced growth retardation in FVB mice (tibia length, nose to anus length); assay type: in vivo; details: Dexa 20 μg/mice/day s.c.
Description: Four weeks old female mice FVB strain were obtained from Charles-River, Germany. The mice were kept in animal facility under a 12-h light, 12-h dark schedule with water ad libitum. After an adaptation period, mice were injected with Dexa dissolved in saline (20 μg/mice) subcutaneously in the neck every day for 1 week (short-term). Whereas, HNG (S14G) dissolved in saline (1 μg/mice) was injected intraperitoneally, 45 minutes prior to Dexa injection. The vehicle group received saline only. After one week of treatment/injections, animals were sacrificed and the back legs (femur and tibia) were collected. The skin and muscle from the tibia was removed and final length of tibia was measured by using electronic digital caliper as reported previously (Zaman, Menendez-Benito et al. 2007).
In another study, four weeks old female mice FVB strain (Charles-river, Germany) were injected with Dexa dissolved in saline (20 μg/mice) subcutaneously in the neck every day for four week (long-term). Whereas, HNG (S14G) dissolved in saline (1 μg/mice) was injected intraperitoneally, 45 minutes prior to Dexa injection. The vehicle group received saline only. The total body length (nose to anus) was measured (centimeters, cm) manually (blinded, the cadges were coded on the day of measurment), every week. After 4 weeks of treatment, animals were sacrificed by inhalation of CO2, tissue samples (both left and right leg) were collected for subsequent analysis.
HNG injections were given […] prior to Dexa injections. […] After this, we next asked whether HNG (S14G) has any protective effects on bone growth after long-term treatment with Dexa (FIG. 3A). To investigate this, we treated mice for 4 weeks (group 2) with Dexa (20 μg/mice/day) and HNG (1 μg/mice/day). […] In FIG. 3B, total growth of the animals, nose to anus length (cm, manually) was analyzed in vehicle, Dexa, HNG (S14G) and Dexa/HNG (S14G) treated animals after four weeks of injections. **p<0.01 by 1-way ANOVA analyses, n=9-10/animals/group).

growth plate cartilage = experiment: Growth plate histology, resting and proliferating chondrocyte zone (R+P); assay type: in vivo, mice; details: Dexa alone, four weeks
Description: Four weeks old mice (female, FVB) were injected with Dexa dissolved in saline ([…]) subcutaneously in the neck every day for four week. Whereas, HNG (S14G) dissolved in saline (1 μg/mice) was injected intra-peritoneally, 45 minutes prior to the Dexa injection for four weeks, for details see materials and methods. The femur and tibia bones were dissected out and fixed in 4% formalin for 24 hrs, followed by decalcification in 10% EDTA and embedded in paraffin blocks. Five-micrometer-thick sections were prepared from these paraffin blocks. The sections were prepared from the tibial growth plate and stained with Van Gieson. Digital images of stained sections were collected using a Nikon Eclipse E800 microscope (Nikon Corp., Tokyo, Japan) equipped with an Olympus DP70 digital camera (Olympus Sverige AB, Solna, Sweden).
Since a positive effect of HNG (S14G) on bone growth was identified, different zones of chondrocytes were analyzed (resting, proliferative and hypertrophic) in growth plate cartilage, to identify visible changes in these zones. […] These micropgraphas also explain the longitudinal bone growth promoting effects by HNG (S14G) alone or in combination with Dexa.

male Wistar rats = details: cited from earlier work

Compound: CC(C)C[C@H](NC(=O)[C@H](Cc1ccccc1)NC(=O)c1cnccn1)B(O)O [CT (bortezomib), bortezomib]
- chondrocyte apoptosis (TUNEL) [1]: significant induction of chondrocyte apoptosis
- chondrocyte apoptosis (TUNEL) [2]: significant dose-dependent increase in chondrocyte apoptosis
- longitudinal bone growth ([3]; bortezomib 50 nM or higher, from day 2 throughout 12 days, p<0.001 vs control): Significant growth suppression
- longitudinal bone growth ([3]; bortezomib 1000 nM for only 24 hrs, then control medium up to 12 days): permanent growth arrest
- longitudinal bone growth ([3]; bortezomib, all concentrations tested (25-100 nM)): completley abolished growth
- body weight (C57B and NMRI mice; C57BL mice, bortezomib 1 mg/kg i.p. days 1, 4, 8, 11, vs vehicle): no difference in body weight
- body weight (C57B and NMRI mice; NMRI mice, bortezomib 1 mg/kg i.p. days 1, 4, 8, 11, day 36 until day 56, vs vehicle): significant difference in body weight
- bone length (femur, X-ray) (C57B and NMRI mice; after 45 day follow-up (day 56), p<0.001): still significantly shorter
- bone length (femur, X-ray) (C57B and NMRI mice; day 13, both strains, p<0.001 vs vehicle): significantly shorter
- tumor doubling time [4]: significant reduction in tumor doubling time
- TUNEL positive cells [5]: 22.2±4.4%
- expression of pro-apoptotic proteins AIF and BAX [6]: induce up-regulation and activation
- effect on growth plate and growth (growth plate): permanent growth retardation and chondrocyte cell death

Compound: C[C@@H]1C[C@H]2[C@@H]3CCC4=CC(=O)C=C[C@]4(C)[C@@]3(F)[C@@H](O)C[C@]2(C)[C@@]1(O)C(=O)CO [Dexa, Dexamethasone, reference compound]
- longitudinal bone growth ([3]; Dexa 1 μM alone): induced growth retardation
- growth (tibia length) (FVB mice; 1 week): significantly induced growth retardation
- growth (nose to anus length) (FVB mice; 4 weeks, vs vehicle): significantly growth retarded
- size of resting and proliferating chondrocyte zone (R+P) (growth plate cartilage): appears smaller

Compound: CC(C)C[C@H](NC(=O)[C@H](CC(C)C)NC(=O)[C@H](CC(C)C)NC(=O)OCc1ccccc1)B(O)O [MG262]
- effect on growth plate and growth (growth plate): permanent growth retardation and chondrocyte cell death

Compound: COc1cccc2c1C(=O)c1c(O)c3c(c(O)c1C2=O)C[C@@](O)(C(=O)CO)C[C@@H]3O[C@H]1C[C@H](N)[C@H](O)[C@H](C)O1 [doxorubicin]
- reduction in tibia length (male Wistar rats): 18%

Compound: CN(Cc1cnc2nc(N)nc(N)c2n1)c1ccc(C(=O)N[C@@H](CCC(=O)O)C(=O)O)cc1 [methotrexate]
- reduction in tibia length (male Wistar rats): 5%

Compound: Colivelin
- protection against Dexa-induced bone growth retardation ([3]; colivelin 100 μM combined with Dexa 1 μM): some protective effect against Dexa-induced bone growth retardation
- longitudinal growth ([3]; colivelin alone, cultured for 12 days): some stimulatory effect on longitudinal growth
